Literature values as cited in patent US20200016150A1, “TREATMENT OF THE PRURITIC SYMPTOMS OF LIVER DISEASE” (TREVI THERAPEUTICS, INC., priority 2018, published 2020).

Conditions: injectable formulations (i.e., IV or IM or SC)

Cl.Oc1ccc2c3c1OC1[C@@H](O)CC[C@@]4(O)[C@@H](C2)N(CC2CCC2)CC[C@]314 (stereo partly drawn) [nalbuphine, 17-(cyclobutylmethyl)-4,5α-epoxymorphinan-3, 6α, 14-triol, hydrochloride]
half-life: 2 to 3 h
